# Assay results from patent publication US6358885B1, “Substituted phenylheterocyclic herbicides” (Mississippi State University, priority 1992, dated 2002).
# What was measured:
# lambsquarters = test: Test C preemergence/postemergence greenhouse plant response rating 0 to 100; assay type: in vivo, Chenopodium album; conditions: POSTEMERGENCE; for Plant response rating Lambsquarters: 0 to 100 scale
# In short: (§1)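 Compounds in non-phytotoxic solvent went onto sandy loam before emergence (seeded one day earlier) or onto plants at the one-to-four leaf stage. Duck salad was treated via flood water (~2.5 cm, maintained) over silt loam.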
# rape = test: Test B preemergence/postemergence greenhouse plant response rating 0 to 10; assay type: in vivo, Brassica napus; conditions: 0 to 10 scale
# In short: (§2)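 Postemergence treatment of plants two to eighteen cm tall ran alongside preemergence treatment of planted seed, each using compound in a non-phytotoxic solvent.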
# umbrella sedge = test: Test C flood test plant response rating 0 to 100; assay type: in vivo, Cyperus difformis; conditions: for Plant response rating Umbrella sedge: flood test species listed under POSTEMERGENCE, 0 to 100 scale
# In short: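 Compounds in non-phytotoxic solvent applied preemergence to sandy loam one day after planting, postemergence at the 1–4 leaf stage, or to ~2.5 cm floodwater over silt loam.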
# cheatgrass = test: Test B preemergence/postemergence greenhouse plant response rating 0 to 10; assay type: in vivo, Bromus secalinus; conditions: 0 to 10 scale
# In short: as §2
# pigweed = test: Test C preemergence/postemergence greenhouse plant response rating 0 to 100; assay type: in vivo, Amaranthusretroflexus; conditions: POSTEMERGENCE; for Plant response rating Pigweed: 0 to 100 scale
# In short: as §1
# crabgrass = test: Test B preemergence/postemergence greenhouse plant response rating 0 to 10; assay type: in vivo, Digitaria spp.; conditions: 0 to 10 scale
# In short: as §2
# soybean = test: Test C preemergence/postemergence greenhouse plant response rating 0 to 100; assay type: in vivo, Glycine max; conditions: POSTEMERGENCE; for Plant response rating, Soybean: 0 to 100 scale
# In short: as §1
# barley = test: as above; assay type: in vivo, Hordeum vulgare; conditions: POSTEMERGENCE; for Plant response rating Barley Igri: 0 to 100 scale
# In short: as §1
# velvetleaf = test: as above; assay type: in vivo, Abutilon theophrasti; conditions: POSTEMERGENCE; for Plant response rating, Velvetleaf: 0 to 100 scale
# In short: as §1
# duck salad = test: Test C flood test plant response rating 0 to 100; assay type: in vivo, Heteranthera limosa; conditions: for Plant response rating Duck salad: flood test species listed under POSTEMERGENCE, 0 to 100 scale
# In short: as §1
# giant foxtail [1] = test: Test C preemergence/postemergence greenhouse plant response rating 0 to 100; assay type: in vivo, Setaria faberii; conditions: POSTEMERGENCE; for Plant response rating, Giant foxtail: 0 to 100 scale
# In short: as §1
# morningglory = test: Test B preemergence/postemergence greenhouse plant response rating 0 to 10; assay type: in vivo, Ipomoea hederacea; conditions: 0 to 10 scale
# In short: as §2
# chickweed = test: Test C preemergence/postemergence greenhouse plant response rating 0 to 100; assay type: in vivo, Stellaria media; conditions: POSTEMERGENCE; for Plant response rating, Chickweed: 0 to 100 scale
# In short: as §1
# cotton [2] = test: Test B preemergence/postemergence greenhouse plant response rating 0 to 10; assay type: in vivo, Gossypium hirsutum; conditions: 0 to 10 scale
# In short: as §2
# bedstraw = test: as above; assay type: in vivo, Galium aparine; conditions: 0 to 10 scale
# In short: as §2
# giant foxtail [3] = test: as above; assay type: in vivo, Setaria faberii; conditions: 0 to 10 scale
# In short: as §2
# cotton [4] = test: Test C preemergence/postemergence greenhouse plant response rating 0 to 100; assay type: in vivo, Gossypium hirsutum; conditions: POSTEMERGENCE; for Plant response rating, Cotton: 0 to 100 scale
# In short: as §1
# cocklebur = test: Test B preemergence/postemergence greenhouse plant response rating 0 to 10; assay type: in vivo, Xanthium pensylvanicum; conditions: 0 to 10 scale
# In short: as §2
# [5] = POSTEMERGENCE section, flood test, Rate 4 g/ha
# [6] = Rate 16 g/ha, under POSTEMERGENCE head (flood test species)
structure (smiles),measurement,setting,value
Fc1cc(Cl)c(OCCCl)cc1-c1nn2c(c1Cl)CCCC2 [Compound 49],Plant response rating Lambsquarters,lambsquarters; 62 g/ha,100
same,Plant response rating Lambsquarters,lambsquarters; 250 g/ha,100
same,"Plant response rating (0 to 100), Lambsquarters",lambsquarters; Rate 4 g/ha,100
same,"Plant response rating (0 to 100), Lambsquarters",lambsquarters; Rate 16 g/ha,100
same,"Plant response rating, Rape","rape; POSTEMERGENCE, Rate 50 g/ha",7
same,"Plant response rating, Rape","rape; PREEMERGENCE, Rate 50 g/ha",1
same,"Plant response rating, Rape","rape; Rate 200 g/ha, POSTEMERGENCE",6
same,"Plant response rating, Rape","rape; Rate 200 g/ha, PREEMERGENCE",6
same,"Plant response rating (0 to 100), Umbrella sedge",umbrella sedge; [5],40
same,"Plant response rating (0 to 100), Umbrella sedge",umbrella sedge; [6],70
same,Plant response rating Umbrella sedge,umbrella sedge; 62 g/ha,90
same,Plant response rating Umbrella sedge,umbrella sedge; 250 g/ha,95
same,"Plant response rating, Cheatgrass","cheatgrass; POSTEMERGENCE, Rate 50 g/ha",4
same,"Plant response rating, Cheatgrass","cheatgrass; POSTEMERGENCE, Rate 200 g/ha",7
same,"Plant response rating, Cheatgrass","cheatgrass; PREEMERGENCE, Rate 50 g/ha",0
same,"Plant response rating, Cheatgrass","cheatgrass; Rate 200 g/ha, PREEMERGENCE",2
same,Plant response rating Pigweed,pigweed; 62 g/ha,100
same,Plant response rating Pigweed,pigweed; 250 g/ha,100
same,"Plant response rating (0 to 100), Pigweed",pigweed; Rate 4 g/ha,70
same,"Plant response rating (0 to 100), Pigweed",pigweed; Rate 16 g/ha,100
same,"Plant response rating, Crabgrass","crabgrass; POSTEMERGENCE, Rate 50 g/ha",4
same,"Plant response rating, Crabgrass","crabgrass; PREEMERGENCE, Rate 50 g/ha",0
same,"Plant response rating, Crabgrass","crabgrass; Rate 200 g/ha, PREEMERGENCE",5
same,"Plant response rating, Soybean",soybean; 62 g/ha,70
same,"Plant response rating, Soybean",soybean; 250 g/ha,80
same,"Plant response rating (0 to 100), Soybean",soybean; Rate 4 g/ha,40
same,"Plant response rating (0 to 100), Soybean",soybean; Rate 16 g/ha,50
same,Plant response rating Barley Igri,barley; 62 g/ha,40
same,Plant response rating Barley Igri,barley; 250 g/ha,60
same,"Plant response rating (0 to 100), Barley Igri",barley; Rate 4 g/ha,10
same,"Plant response rating (0 to 100), Barley Igri",barley; Rate 16 g/ha,20
same,"Plant response rating, Velvetleaf",velvetleaf; 62 g/ha,100
same,"Plant response rating, Velvetleaf",velvetleaf; 250 g/ha,100
same,"Plant response rating (0 to 100), Velvetleaf",velvetleaf; Rate 4 g/ha,50
same,"Plant response rating (0 to 100), Velvetleaf",velvetleaf; Rate 16 g/ha,90
same,"Plant response rating (0 to 100), Duck salad",duck salad; [5],20
same,"Plant response rating (0 to 100), Duck salad",duck salad; [6],70
same,Plant response rating Duck salad,duck salad; 62 g/ha,90
same,Plant response rating Duck salad,duck salad; 250 g/ha,95
same,"Plant response rating, Giant foxtail",giant foxtail [1]; 62 g/ha,50
same,"Plant response rating, Giant foxtail",giant foxtail [1]; 250 g/ha,60
same,"Plant response rating (0 to 100), Giant foxtail",giant foxtail [1]; Rate 4 g/ha,30
same,"Plant response rating (0 to 100), Giant foxtail",giant foxtail [1]; Rate 16 g/ha,40
same,"Plant response rating, Morningglory","morningglory; POSTEMERGENCE, Rate 50 g/ha",10
same,"Plant response rating, Morningglory","morningglory; PREEMERGENCE, Rate 50 g/ha",1
same,"Plant response rating, Morningglory","morningglory; Rate 200 g/ha, POSTEMERGENCE",10
same,"Plant response rating, Morningglory","morningglory; Rate 200 g/ha, PREEMERGENCE",6
same,"Plant response rating, Chickweed",chickweed; 62 g/ha,50
same,"Plant response rating, Chickweed",chickweed; 250 g/ha,80
same,"Plant response rating (0 to 100), Chickweed",chickweed; Rate 4 g/ha,20
same,"Plant response rating (0 to 100), Chickweed",chickweed; Rate 16 g/ha,50
same,"Plant response rating, Cotton","cotton [2]; POSTEMERGENCE, Rate 50 g/ha",10
same,"Plant response rating, Cotton","cotton [2]; POSTEMERGENCE, Rate 200 g/ha",10
same,"Plant response rating, Cotton","cotton [2]; PREEMERGENCE, Rate 50 g/ha",2
same,"Plant response rating, Cotton","cotton [2]; Rate 200 g/ha, PREEMERGENCE",2
same,"Plant response rating, Bedstraw","bedstraw; POSTEMERGENCE, Rate 50 g/ha",9
same,"Plant response rating, Bedstraw","bedstraw; POSTEMERGENCE, Rate 200 g/ha",9
same,"Plant response rating, Bedstraw","bedstraw; PREEMERGENCE, Rate 50 g/ha",8
same,"Plant response rating, Bedstraw","bedstraw; Rate 200 g/ha, PREEMERGENCE",9
same,"Plant response rating, Giant foxtail","giant foxtail [3]; POSTEMERGENCE, Rate 50 g/ha",4
same,"Plant response rating, Giant foxtail","giant foxtail [3]; PREEMERGENCE, Rate 50 g/ha",4
same,"Plant response rating, Giant foxtail","giant foxtail [3]; Rate 200 g/ha, POSTEMERGENCE",6
same,"Plant response rating, Giant foxtail","giant foxtail [3]; Rate 200 g/ha, PREEMERGENCE",10
same,"Plant response rating, Cotton",cotton [4]; 62 g/ha,100
same,"Plant response rating, Cotton",cotton [4]; 250 g/ha,100
same,"Plant response rating (0 to 100), Cotton",cotton [4]; Rate 4 g/ha,90
same,"Plant response rating (0 to 100), Cotton",cotton [4]; Rate 16 g/ha,90
same,"Plant response rating, Cocklebur","cocklebur; POSTEMERGENCE, Rate 50 g/ha",9
same,"Plant response rating, Cocklebur","cocklebur; POSTEMERGENCE, Rate 200 g/ha",8
same,"Plant response rating, Cocklebur","cocklebur; PREEMERGENCE, Rate 50 g/ha",0
same,"Plant response rating, Cocklebur","cocklebur; Rate 200 g/ha, PREEMERGENCE",0
